Measured values reported in patent US11672795B2, “Compositions and methods for treating pulmonary vascular disease” (UNIVERSITY OF PITTSBURGH-OF THE COMMONWEALTH SYSTEM OF …, priority 2016, dated 2023).

Experiments:
[1] = test system: PAAFs; test: PAAF-dependent ECM remodelling on cytokine stimulation (RT-qPCR, picrosirius red); type: cell-based; details: stimulation by pro-inflammatory cytokines (EDN1, IL6 or TGF-b)
Source text: (§1) A-C) Pharmacological inhibition of GLS1 by either BPTES, C968 or CB839 blunted metabolic activation of PAAFs cultivated on stiff matrix as reflected by decreased glutaminolysis (A), glycolysis (B) and aspartate production (C). D-E) Pharmacological inhibition of GLS1 by either BPTES, C968 or CB839 decreased PAAFs dependent ECM remodelling upon stimulation by pro-inflammatory cytokines (EDN1, IL6 or TGF-b). […] G-H) Fibrilar collagen visualization (G) and quantification (H) by picrosirius red staining confirmed a decreased of ECM remodelling by activated PAAF (TGF-b) in presence of GLS1 inhibitors. I-M) PAAFs were cultivated upon indicated treatments. Cells were removed and pulmonary arterial endothelial cells (PAECs) were cultivated on the matrix synthesized by the PAAF. […] Data are expressed as mean±SEM (*P<0.05, § P<0.01, #P<0.001) of at least 3 independent experiments performed in triplicate. Paired samples were compared by 2-tailed Student's t test, while 1-way ANOVA and post-hoc Tukey's tests were used for group comparisons.
Messenger RNAs were reverse transcribed using the Multiscript RT kit (Life Technologies) to generate cDNA. cDNA was amplified via fluorescently labeled Taqman primer sets using an Applied Biosystems 7900HT Fast Real Time PCR device. To specifically determine the relative expression of the two GLS1 isoforms KGA and GAC, TaqMan gene expression assays Hs01014019_m1 and Hs01022166_m1 were used respectively. Fold-change of RNA species was calculated using the formula (2^−ΔΔCt), normalized to RPLP0 expression.
Picrosirius Red stain was achieved through the use of 5 μm paraffin sections stained with 0.1% Picrosirius Red (Direct Red80, Sigma-Aldrich) and counterstained with Weigert's hematoxylin to reveal fibrillar collagen. The sections were then serially imaged using with an analyzer and polarizer oriented parallel and orthogonal to each other. Microscope conditions (lamp brightness, condenser opening, objective, zoom, exposure time, and gain parameters) were maintained throughout the imaging of all samples. A minimal threshold was set on appropriate control sections for each experiment in which only the light passing through the orthogonally-oriented polarizers representing fibrous structures (i.e., excluding residual light from the black background) was included. The threshold was maintained for all images across all conditions within each experiment. The area of the transferred regions that was covered by the thresholded light was calculated and at least 10 sections/vessel per condition were averaged together (NIH ImageJ software). Targeted LC-MS/MS

[2] = test system: GLS1; test: Targeted LC-MS/MS of intracellular metabolites in PAECs on soft or stiff matrix with GLS inhibitors; type: cell-based, human; details: BPTES 10 μM, DON 5 μM; for glutamate and aspartate / glutamine, pyruvate, and succinate / lactate: compared with stiff matrix control; for alterations of metabolite expression in stiff matrix (stiffness-induced glutamine consumption, glutamate production, aspartate production) / lactate/pyruvate ratio (glycolysis): C968 10 μM, stiff matrix
Experimental: HEK293T cells (American Type Culture Collection) were cultivated in DMEM containing 10% fetal bovine serum (FBS). Primary human pulmonary arterial endothelial cells (PAECs) were grown in EGM-2 cell culture media (Lonza), and experiments were performed at passages 3 to 6. Primary human pulmonary arterial smooth muscle cells (PASMCs) were cultured in SmGM-2 cell culture media (Lonza), and experiments were performed at passages 3 to 9. Inhibitors of GLS1 (2, 3): BPTES (Bis-2-(5-phenylacetamido-1,3,4-thiadiazol-2-yl)ethyl sulphide), DON (6-Diazo-5-oxo-L-norleucine), and C968 (Glutaminase Inhibitor, Compound 968, 5-(3-Bromo-4-(dimethylamino)phenyl)-2,2-dimethyl-2,3,5,6-tetrahydrobenzo[a]phenanthridin-4(1H)-one) were purchased from Sigma-Aldrich and used at concentration of 10 μM, 5 μM and 10 μM respectively. Glutamate was purchased from Sigma Aldrich and used at concentration of 2 mM. Aspartate was purchased from Sigma Aldrich and used at concentration of 10 mM.
Metabolite extraction was performed essentially as described with minor modifications (35). Briefly, metabolites were extracted from cultured cells and CD31+ cells on dry ice using 80% aqueous methanol pre-cooled at −80° C. Metabolites were extracted from plasma pre-cleared by centrifugation at 20,000×g for 10 min at 4° C. Supernatants were extracted with four volumes of 100% methanol pre-cooled at −80° C. for four hours at −80° C. An internal standard, [^13C4]-2-oxoglutarate (Cambridge Isotope Laboratories) was added during metabolite extraction. Insoluble material from both cell and plasma extractions was removed by centrifugation at 20,000×g for 15 min at 4° C. The supernatant was analysed by targeted LC-MS/MS as previously described (36). Metabolites were separated using a ZIC-HILIC stationary phase (150 mm×2.1 mm×[…]; Merck). The MS parameters were optimized using a glutamine standard solution. Monitored mass transitions were 87>87 (pyruvate), 115>73+99 (succinate), 132>88 (aspartate), 145>101 (20G), […] (glutamine), 146>128 (glutamate), and 149>105 ([^13C4]-20G). Mass transitions and retention time windows were confirmed by the analysis of neat and matrix-spiked standards. Peak areas were quantified by Xcalibur Software (Thermo) and manually reviewed.
To determine whether GLS1 is critical for stiffness-induced and YAP/TAZ-dependent glutaminolysis, PAECs were cultivated in soft or stiff matrix, and exposed to known inhibitors of two isoforms of GLS1 (KGA and GAC), BPTES (Bis-2-(5-phenylacetamido-1,3,4-thiadiazol-2-yl)ethyl sulphide), DON (6-Diazo-5-oxo-L-norleucine), or CB-968 (glutaminase inhibitor, compound 968, C-968) (FIG. 3A-C) or siRNA (si-GLS; FIG. 3D-G). As quantified by LC-MS/MS, inhibition of GLS in PAECs blunted the stiffness-induced processes of glutamine consumption, glutamate production, and aspartate production (FIGS. 3A and E). […] Similar alterations of metabolic activity were observed when inhibiting GLS1 in PASMCs (data not shown).

[3] = test system: PAECs; test: Apoptosis of PAECs on soft or stiff matrix (caspase 3/7 activity, cleaved caspase-3 staining); type: cell-based, human
Experimental: A-C) PAECs were plated on soft (1 kPa) or stiff (50 kPa) matrix and exposed to indicated treatments. Apoptosis (A-C) and proliferation (B-C) were quantified 48 h after plating. […] In all panels, mean expression in control groups (soft matrix) was assigned a fold change of 1, to which relevant samples were compared. Data are expressed as mean±SD (*P<0.05; ** P<0.01, ***P<0.001).
(§2) After various indicated treatments, cultured cells were fixed with PBS/PFA 4% for 10 min and permeabilized with PBS/Triton 100×0.1% for 10 min. The cells were then incubated with anti-PCNA (#4912; 1/100; Invitrogen), anti-Ki67 (ab15580; 1/200; Abcam), and/or anti-cleaved caspase-3 (1/200; Cell Signaling) at room temperature for 2 hours. Secondary antibodies coupled with Alexa-594 and/or Alexa-488 (Thermo Scientific) were used at 1/500. Nuclei were counterstained with DAPI (Sigma).
Caspase 3/7 activity was quantified using the Caspase-Glo 3/7 Assay (Promega), according to manufacturer's instructions. Briefly, cells were plated on hydrogel of different stiffness and treated as described. Twenty four hours after plating, cells were cultured in the presence or absence of serum for twenty-four hours. Cells were then lysed and 10 μg of total protein were incubated for 1 h with the caspase substrates, and luminescence was quantified by plate reader (SynergyHTX multi-mode reader, Biotek).

[4] = test system: PAAFs; test: Metabolic activation of PAAFs cultivated on stiff matrix; type: cell-based
Source text: as §1

[5] = test system: PAECs; test: Proliferation of PAECs (cell count, BrdU pulse, PCNA staining); type: cell-based, human
Experimental: A-C) PAECs were plated on soft (1 kPa) or stiff (50 kPa) matrix and exposed to indicated treatments. Apoptosis (A-C) and proliferation (B-C) were quantified 48 h after plating. […] Apoptosis (as reflected by cleaved caspase-3 staining, CC-3+) was increased by serum starvation in both soft and stiff conditions but was not affected by GLS1 inhibition. In all panels, mean expression in control groups (soft matrix) was assigned a fold change of 1, to which relevant samples were compared. Data are expressed as mean±SD (*P<0.05; ** P<0.01, ***P<0.001).
as §2
After specified pre-treatment or transfection protocols as indicated, PAECs or PASMCs were plated in triplicate in 6 well plates at 30 000 cells per well. After overnight incubation for cells to adhere, 6 wells were counted to determine initial count at time of treatments (glutamate, aspartate, BPTES, DON or C968). After 2 days, 4 days or 6 days, the contents of the wells were trypsinized and counted, and proliferation rate was calculated.
Exponentially growing cells were plated in the indicated matrix for 48 hours.

SMILES: O=C(Cc1ccccc1)Nc1nnc(CCSCCc2nnc(NC(=O)Cc3ccccc3)s2)s1 [BPTES, Bis-2-(5-phenylacetamido-1,3,4-thiadiazol-2-yl)ethyl sulphide]
- PAAFs dependent ECM remodelling [1]: decreased
- glutamate and aspartate [2]: decreased
- glutamine, pyruvate, and succinate [2]: increased
- lactate [2]: decreased
- alterations of metabolite expression in stiff matrix (stiffness-induced glutamine consumption, glutamate production, aspartate production) [2]: blunted
- lactate/pyruvate ratio (glycolysis) [2]: decreased
- apoptosis (cleaved caspase-3 staining, CC-3+) ([3]; serum starvation, soft and stiff conditions): not affected
- caspase 3/7 activity ([3]; soft (1 kPa) or stiff (50 kPa) matrix, 24 h after serum depletion, vs vehicle control): No significant changes
- aspartate production [4]: decreased
- glutaminolysis [4]: decreased
- glycolysis [4]: decreased
- metabolic activation of PAAFs [4]: blunted
- proliferation in stiff matrix (PCNA+) ([5]; PAECs, stiff matrix, 48 h after plating): decreased

SMILES: N[C@@H](CCC(=O)O)C(=O)O [glutamate, Glutamate]
- cellular proliferation in cells with diminished GLS1 or YAP/TAZ ([5]; PAECs or PASMCs with siRNA knockdown, glutamate 2 mM, aspartate 10 mM supplementation, data not shown): at least partially restored

SMILES: [N-]=[N+]=CC(=O)CC[C@H](N)C(=O)O [DON, 6-Diazo-5-oxo-L-norleucine]
- glutamate and aspartate [2]: decreased
- glutamine, pyruvate, and succinate [2]: increased
- lactate [2]: decreased
- alterations of metabolite expression in stiff matrix (stiffness-induced glutamine consumption, glutamate production, aspartate production) [2]: blunted
- lactate/pyruvate ratio (glycolysis) [2]: decreased
